Experimental data published in ChEMBL document CHEMBL1201862, “PubChem BioAssay data set” (2004).
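Tested at 5 concentrations; 48 h exposure; 96-well plates; endpoints linearly interpolated, else capped at highest concentration. Abbreviation: GI50, concentration required for 50% inhibition of growth.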 Calls of active or inactive are those of the source. Cut-off read from the data, not from the text of the source: active = GI50 up to about 1.1 µM and inactive = higher.

How the values were obtained:
Experiment in all cases: inhibition of tumour cell growth, NCI panel, 48 h
[1] = tested on: SW-620
[2] = tested on: LOX IMVI
[3] = tested on: UO-31
[4] = tested on: HCC 2998
[5] = tested on: HOP-62
[6] = tested on: HCT-116
[7] = tested on: SN12C
[8] = tested on: SF-539
[9] = tested on: COLO 205
[10] = tested on: RXF 393
[11] = tested on: HOP-92
[12] = tested on: KM12
[13] = tested on: SK-OV-3
[14] = tested on: MOLT-4
[15] = tested on: OVCAR-5
[16] = tested on: SF-268
[17] = tested on: M14
[18] = tested on: TK-10
[19] = tested on: ACHN

Measured: GI50

S=P1(N2CCCCC2)Oc2ccc3ccccc3c2-c2c(ccc3ccccc23)O1
inactive: [1] > 100 µM | [2] 60.4 µM | [3] > 80.7 µM | [4] > 100 µM | [5] > 100 µM | [6] > 82.2 µM | [7] > 100 µM | [8] 71.1 µM | [9] > 100 µM | [10] > 89.7 µM | [11] 92.9 µM | [12] > 100 µM | [13] > 92.5 µM | [14] > 100 µM | [15] > 100 µM | [16] > 82.2 µM

COc1ccc(C2C3C(=O)C=CC(=O)C3[C@@H]2C)cc1OC (stereo partly drawn)
inactive: [17] > 100 µM | [18] > 100 µM | [1] 42.1 µM | [2] 42.3 µM | [3] 73.5 µM | [4] > 100 µM | [5] > 100 µM | [6] 28.4 µM | [8] > 100 µM | [9] 78.5 µM | [10] > 100 µM | [11] > 100 µM | [12] > 100 µM | [19] 47.6 µM | [13] > 100 µM | [14] 36 µM | [15] > 100 µM | [16] > 100 µM

C=C1COC(/C=C(\C)CC/C=C(\C)CCl)C1 (stereo not drawn)
inactive: [17] > 100 µM | [18] > 100 µM | [1] > 100 µM | [2] > 100 µM | [3] > 100 µM | [4] > 100 µM | [5] > 100 µM | [6] > 100 µM | [7] > 100 µM | [8] > 100 µM | [9] > 100 µM | [10] > 100 µM | [11] 35.1 µM | [12] > 100 µM | [19] > 100 µM | [13] > 100 µM | [14] > 100 µM | [15] > 100 µM | [16] > 100 µM

O=C1N(C2CCCCC2)CC12CCCCC2
inactive: [17] > 100 µM | [18] > 100 µM | [1] > 100 µM | [2] > 100 µM | [3] > 100 µM | [4] > 100 µM | [5] > 100 µM | [6] > 100 µM | [7] > 100 µM | [8] > 100 µM | [9] > 100 µM | [10] > 100 µM | [11] > 100 µM | [19] > 100 µM | [13] > 100 µM | [14] > 100 µM | [16] > 100 µM

Cc1ccccc1N1C(=O)C2C=CC(n3[nH]c(=O)n(Cc4ccccc4)c3=O)CC2C1=O (stereo not drawn)
inactive: [17] > 100 µM | [18] > 100 µM | [1] > 100 µM | [2] > 100 µM | [3] > 100 µM | [4] > 100 µM | [5] > 100 µM | [6] > 100 µM | [7] > 100 µM | [8] > 100 µM | [9] > 100 µM | [10] > 100 µM | [11] > 100 µM | [12] > 100 µM | [19] > 100 µM | [13] > 100 µM | [14] > 100 µM | [15] > 100 µM | [16] > 100 µM

CC(=O)OC1/C=C(\C)C(OC(C)=O)C/C=C(/C)CCC2C(/C=C/C1=O)C2(C)C (stereo not drawn)
inactive: [17] > 100 µM | [18] 64.7 µM | [1] > 100 µM | [2] > 100 µM | [3] 67.5 µM | [4] > 100 µM | [5] 92.5 µM | [6] > 100 µM | [7] > 100 µM | [8] > 100 µM | [9] > 100 µM | [10] 79.4 µM | [11] 42.2 µM | [12] > 100 µM | [19] > 100 µM | [13] > 100 µM | [14] > 100 µM | [15] > 100 µM | [16] > 100 µM

O=P1(O)c2ccccc2CS(=O)(=O)Cc2ccccc21
inactive: [17] > 100 µM | [18] > 100 µM | [1] > 100 µM | [2] > 100 µM | [3] > 100 µM | [4] > 100 µM | [5] > 100 µM | [6] > 100 µM | [7] > 100 µM | [8] > 100 µM | [9] > 100 µM | [10] > 100 µM | [11] > 100 µM | [12] > 100 µM | [19] > 100 µM | [13] > 100 µM | [14] > 100 µM | [15] > 100 µM | [16] > 100 µM

COc1ccc(C(C2C(=O)N(C)C(=O)N(C)C2=O)C(F)(F)C(=O)N(C)C)cc1 (stereo not drawn)
inactive: [17] > 100 µM | [18] > 100 µM | [1] > 100 µM | [2] > 100 µM | [3] > 100 µM | [4] > 100 µM | [5] > 100 µM | [6] > 100 µM | [8] > 100 µM | [9] > 100 µM | [10] > 100 µM | [11] > 100 µM | [12] > 100 µM | [19] > 100 µM | [13] > 100 µM | [15] > 100 µM | [16] > 100 µM

C[C@]12CC[C@H](OC3CCCCO3)CC1=CC[C@@H]1C2CC[C@]2(C)/C(=N/OCCC#N)CCC12 (stereo partly drawn)
inactive: [17] > 100 µM | [18] 24 µM | [1] > 100 µM | [2] 6.38 µM | [3] 47.8 µM | [4] > 100 µM | [5] > 100 µM | [6] 5.73 µM | [7] 64.7 µM | [8] 83.4 µM | [10] 16 µM | [11] 21.9 µM | [12] > 100 µM | [19] 33.8 µM | [13] 37.5 µM

NC(=O)c1ccccc1NC(=O)C(=O)C(c1cnc2ccc([N+](=O)[O-])cc2n1)[N+](=O)[O-] (stereo not drawn)
inactive: [17] > 100 µM | [18] > 100 µM | [1] > 100 µM | [2] 40.5 µM | [3] 28.9 µM | [4] > 100 µM | [5] > 100 µM | [6] 87.7 µM | [7] > 100 µM | [8] > 100 µM | [10] > 100 µM | [11] > 100 µM | [12] 54.6 µM | [19] 23.5 µM | [13] > 100 µM | [14] 46.3 µM | [15] > 100 µM | [16] > 100 µM

Cc1ccc(N2Cc3c(ccc4ccccc34)OP2(=O)Oc2ccc(Cl)c(C)c2)cc1 (stereo not drawn)
inactive: [1] > 81.8 µM | [2] > 100 µM | [3] 20.3 µM | [4] > 100 µM | [5] > 100 µM | [6] 26.1 µM | [7] > 100 µM | [8] > 100 µM | [9] > 100 µM | [10] > 79.4 µM | [11] 50 µM | [12] > 84.3 µM | [13] > 100 µM | [14] 14.2 µM | [15] > 100 µM | [16] > 100 µM
